From PubChem BioAssay AID1963858 (Molecular Pharmacology Branch, DTP, NCI, 2024)

Tested on: HOP-62 multicell spheroids with HUVEC/MSC, viability
Test: Anticancer human tumor HOP-62 cell line growth inhibition [KRAS2];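 also: viability read after a week of compound exposure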;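 as to viability, T/C: 100% = DMSO vehicle-treated spheroids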
Conditions: for viability, T/C: stronger effect = lower value
Text: Multicellular complex tumor spheroid response to RAS pathway inhibitors in combination with a targeted agents in patient-derived cell lines with oncogenic KRAS variants from multiple cancer types
A high-throughput screen of multi-cell type tumor spheroids was designed to identify active combinations of targeted small molecules and KRAS pathway inhibitors. Complex spheroids include a stromal component modeled by human endothelial cells (HUVEC) and fibroblasts modeled by human mesenchymal stem cells (MSCs). The concentration ranges selected for each drug and investigational agent were based upon clinically achievable concentrations if the clinical Cmax of the agent was known.
Compounds. The drugs and investigational agents: BI-3406 (NSC825286), BAY-293 (NSC824723), batoprotafib (TNO155; NSC825523), sotorasib (AMG 510; NSC818433), MRTX1257 (NSC819558), elimusertib (BAY 1895344; NSC800525), molibresib (GSK525762; NSC774829), temuterkib (LY3214996; NSC803410), venetoclax (NSC766270), alisertib (NSC759677), olaparib (NSC753686), talazoparib (NSC767125), erdafitinib (NSC781556), ipatasertib (NSC767898), cabozantinib (NSC761068), nintedanib (NSC756659), abemaciclib (NSC768073), docetaxel (NSC628503), trametinib (NSC758246), and sapanisertib (NSC764658) were obtained from the National Cancer Institute (NCI) Developmental Therapeutics Program Chemical Repository. The FDA-approved anticancer drug set is available from the Developmental Therapeutics Program. […] The stock solutions were prepared in dimethyl sulfoxide (DMSO, Sigma-Aldrich, St. Louis, MO, cat. D2650) at 800-fold the tested concentration and stored at -70 degrees C prior to their use. All drugs and investigational agents were tested over a range starting from a high concentration at or near the clinical Cmax and decreasing in half-log increments. If the clinical Cmax for an agent had not been determined, the highest concentration tested was 10 microM.
Cell Culture. All cells were maintained in an incubator at 37 degrees C and 5% CO2 with 95% humidity. The PDC lines were cultured according to standard operating procedures established by the NCI PDMR (https://pdmr.cancer.gov/sops/default.htm). Briefly, all PDCs were thawed and cultured in Matrigel-coated flasks prepared with a working solution of 1X Ham's F-12 nutrient mix, without supplementation (Invitrogen, Waltham, MA, cat. 11765054), 100 U/mL penicillin-streptomycin (Invitrogen, cat. 15140122), and 2.5% Matrigel (Corning Inc., Corning, NY, cat. 354248) for the first three passages. All PDCs were cultured in complete DMEM/F-12 media containing advanced DMEM/F-12 (Invitrogen, cat. 12634028), 4.9% defined fetal bovine serum, heat inactivated (HyClone Laboratories Inc., Logan, UT, cat. SH30070.03HI), 389 ng/mL hydrocortisone (Sigma-Aldrich, cat. H4001), 9.7 ng/mL human EGF recombinant protein (Invitrogen, cat. PHG0313), 23.4 microg/mL adenine (Sigma-Aldrich, cat. A2786), 97.3 U/mL penicillin-streptomycin (Invitrogen, cat. 15140122), 1.9 mM L-glutamine (Invitrogen, cat. 25030081), and 9.7 microM Y-27632 dihydrochloride (Tocris Bioscience, Bristol, United Kingdom, cat. 1254). The PDCs were cultured in complete DMEM/F12 media without 9.7 microM Y-27632 dihydrochloride for at least two passages prior to the screen. The established cell line HOP-62 was cultured in RPMI 1640 medium, HEPES (Invitrogen, cat. 22400105) with 10% defined fetal bovine serum (HyClone Laboratories Inc., cat. SH30070.03) and 2 mM L-glutamine (Invitrogen, cat. 25030081). The pooled donor HUVEC were cultured in endothelial cell growth medium 2 (PromoCell, Heidelberg, Germany, cat. C-22011) and the hMSC were cultured in mesenchymal stem cell growth medium 2 (PromoCell, cat. C-28009). For all experiments, HUVEC and hMSC were used at passages </=5, while the malignant cell lines were used at passages </=15. […]

[1] = curve of first compound, second compound 0.1 µM
[2] = curve of first compound, second compound 0.316 µM
[3] = curve of first compound, second compound 1 µM
[4] = curve of first compound, second compound 3.16 µM
[5] = curve of first compound, second compound 10 µM
[6] = second compound 0.1 µM, first compound 0.0316 µM
[7] = second compound 0.1 µM, first compound 0.1 µM
[8] = second compound 0.1 µM, first compound 0.316 µM
[9] = second compound 0.1 µM, first compound 1 µM
[10] = second compound 0.1 µM, first compound 3.16 µM
[11] = second compound 0.1 µM, first compound 10 µM
[12] = second compound 0.316 µM, first compound 0.0316 µM
[13] = second compound 0.316 µM, first compound 0.1 µM
[14] = second compound 0.316 µM, first compound 0.316 µM
[15] = second compound 0.316 µM, first compound 1 µM
[16] = second compound 0.316 µM, first compound 3.16 µM
[17] = second compound 0.316 µM, first compound 10 µM
[18] = second compound 1 µM, first compound 0.0316 µM
[19] = second compound 1 µM, first compound 0.1 µM
[20] = second compound 1 µM, first compound 0.316 µM
[21] = second compound 1 µM, first compound 1 µM
[22] = second compound 1 µM, first compound 3.16 µM
[23] = second compound 1 µM, first compound 10 µM
[24] = second compound 3.16 µM, first compound 0.0316 µM
[25] = second compound 3.16 µM, first compound 0.1 µM
[26] = second compound 3.16 µM, first compound 0.316 µM
[27] = second compound 3.16 µM, first compound 1 µM
[28] = second compound 3.16 µM, first compound 3.16 µM
[29] = second compound 3.16 µM, first compound 10 µM
[30] = second compound 10 µM, first compound 0.0316 µM
[31] = second compound 10 µM, first compound 0.1 µM
[32] = second compound 10 µM, first compound 0.316 µM
[33] = second compound 10 µM, first compound 1 µM
[34] = second compound 10 µM, first compound 3.16 µM
[35] = second compound 10 µM, first compound 10 µM

SMILES | IC50 [1] [µM] | IC50 [2] [µM] | IC50 [3] [µM] | IC50 [4] [µM] | IC50 [5] [µM] | viability, T/C [6] [%] | viability, T/C [7] [%] | viability, T/C [8] [%] | viability, T/C [9] [%] | viability, T/C [10] [%] | viability, T/C [12] [%] | viability, T/C [13] [%] | viability, T/C [14] [%] | viability, T/C [15] [%] | viability, T/C [16] [%] | viability, T/C [18] [%] | viability, T/C [19] [%] | viability, T/C [20] [%] | viability, T/C [21] [%] | viability, T/C [22] [%] | other results
Cn1nccc1Nc1nccc(-c2cc3c(s2)C(C)(C)N(CCN2CCOCC2)C3=O)n1 + CC1OCC2(CCN(c3cnc(Sc4ccnc(N)c4Cl)c(N)n3)CC2)C1N | 0.803 | 0.331 | 0.0978 | < 0.0316 | < 0.0316 | 94.3 | 85.4 | 70 | 48.6 | 21.4 | 85.2 | 71.6 | 51.8 | 30.8 | 21.8 | 62.9 | 48.4 | 36 | 21.2 | 18.1 | viability, T/C [11]: 24.1%; viability, T/C [17]: 20.5%; viability, T/C [23]: 18.7%; viability, T/C [24]: 40.2%; viability, T/C [25]: 35.4%; viability, T/C [26]: 31.9%; viability, T/C [27]: 15.7%; viability, T/C [28]: 14.9%; viability, T/C [29]: 16.6%; viability, T/C [30]: 29.6%; viability, T/C [31]: 35.7%; viability, T/C [32]: 18.7%; viability, T/C [33]: 17.1%; viability, T/C [34]: 13.7%; viability, T/C [35]: 11.9%
COC(=O)c1ccc2c(C(=Nc3ccc(N(C)C(=O)CN4CCN(C)CC4)cc3)c3ccccc3)c(O)[nH]c2c1 + CC1OCC2(CCN(c3cnc(Sc4ccnc(N)c4Cl)c(N)n3)CC2)C1N | 0.179 | 0.105 | < 0.0316 | < 0.0316 | < 0.0316 | 75.1 | 57.4 | 43.7 | 29.2 | 25.5 | 53.9 | 50.9 | 29.4 | 23.6 | 25.1 | 38.5 | 30 | 24.1 | 20.2 | 21.6 | viability, T/C [11]: 22.7%; viability, T/C [17]: 19.5%; viability, T/C [23]: 17.4%; viability, T/C [24]: 27%; viability, T/C [25]: 21.7%; viability, T/C [26]: 18.5%; viability, T/C [27]: 18.4%; viability, T/C [28]: 21.2%; viability, T/C [29]: 14.3%; viability, T/C [30]: 33.5%; viability, T/C [31]: 21.3%; viability, T/C [32]: 27.5%; viability, T/C [33]: 20.4%; viability, T/C [34]: 16.9%; viability, T/C [35]: 11.2%
CC(=O)OC12COC1CC(O)C1(C)C(=O)C(O)C3=C(C)C(OC(=O)C(O)C(NC(=O)OC(C)(C)C)c4ccccc4)CC(O)(C(OC(=O)c4ccccc4)C21)C3(C)C (configuration not stated) + CC1OCC2(CCN(c3cnc(Sc4ccnc(N)c4Cl)c(N)n3)CC2)C1N | < 0.01 | < 0.01 | < 0.01 | < 0.01 | < 0.01 | 34.9 | 35.6 | 37.6 | 38.2 | 40.1 | 33 | 31.2 | 29.8 | 33.1 | 36.4 | 33.8 | 32.7 | 34.5 | 34.8 | 45 | viability, T/C (second compound 0.1 µM, first compound 0.01 µM): 35.9%; viability, T/C (second compound 0.316 µM, first compound 0.01 µM): 31.2%; viability, T/C (second compound 1 µM, first compound 0.01 µM): 37.5%; viability, T/C (second compound 3.16 µM, first compound 0.01 µM): 25.5%; viability, T/C [24]: 22.3%; viability, T/C [25]: 39.3%; viability, T/C [26]: 25.5%; viability, T/C [27]: 25.6%; viability, T/C [28]: 26.9%; viability, T/C (second compound 10 µM, first compound 0.01 µM): 23%; viability, T/C [30]: 18.8%; viability, T/C [31]: 35.4%; viability, T/C [32]: 23.5%; viability, T/C [33]: 25.7%; viability, T/C [34]: 29.4%
COC(=O)c1ccc2c(C(=Nc3ccc(N(C)C(=O)CN4CCN(C)CC4)cc3)c3ccccc3)c(O)[nH]c2c1 | – | – | – | – | – | – | – | – | – | – | – | – | – | – | – | – | – | – | – | – | viability, T/C (compound 0.0316 µM): 89.8% [middle of 5 runs]; viability, T/C (compound 0.1 µM): 77.7% [middle of 5 runs]; viability, T/C (compound 0.316 µM): 65.8% [middle of 5 runs]; viability, T/C (compound 1 µM): 48.6% [middle of 5 runs]; viability, T/C (compound 3.16 µM): 40.7% [middle of 5 runs]; viability, T/C (compound 10 µM): 15.8% [middle of 5 runs]; IC50 (curve of compound): 1.09 µM [middle of 5 runs]
O=C(c1cc(Cc2n[nH]c(=O)c3ccccc23)ccc1F)N1CCN(C(=O)C2CC2)CC1 + COc1cc2nc(C)nc(NC(C)c3cc(N)cc(C(F)(F)F)c3)c2cc1OC1CCOC1 | > 10 | 7.02 | > 10 | 4.69 | 0.0974 | 99.5 | 102 | 106 | 102 | 85.1 | 90.8 | 85.6 | 83.3 | 92.3 | 67.9 | 102 | 98.2 | 93.4 | 94.6 | 85.4 | viability, T/C [11]: 52.7%; viability, T/C [17]: 42%; viability, T/C [23]: 50.5%; viability, T/C [24]: 77%; viability, T/C [25]: 61.9%; viability, T/C [26]: 64%; viability, T/C [27]: 69.3%; viability, T/C [28]: 56.3%; viability, T/C [29]: 36.1%; viability, T/C [30]: 97.5%; viability, T/C [31]: 45.3%; viability, T/C [32]: 55.5%; viability, T/C [33]: 60.9%; viability, T/C [34]: 47%; viability, T/C [35]: 35.1%
